Data reported in patent US8273769B2, “Phenoxy acetic acid derivatives” (Merck Serono SA, priority 2009, dated 2012).
pIC50: −log10 of the molar value.

Molecular target: T1, CRTH2 (Homo sapiens, UniProt Q9Y5Y4)
T1 sequence (Q9Y5Y4 1-395): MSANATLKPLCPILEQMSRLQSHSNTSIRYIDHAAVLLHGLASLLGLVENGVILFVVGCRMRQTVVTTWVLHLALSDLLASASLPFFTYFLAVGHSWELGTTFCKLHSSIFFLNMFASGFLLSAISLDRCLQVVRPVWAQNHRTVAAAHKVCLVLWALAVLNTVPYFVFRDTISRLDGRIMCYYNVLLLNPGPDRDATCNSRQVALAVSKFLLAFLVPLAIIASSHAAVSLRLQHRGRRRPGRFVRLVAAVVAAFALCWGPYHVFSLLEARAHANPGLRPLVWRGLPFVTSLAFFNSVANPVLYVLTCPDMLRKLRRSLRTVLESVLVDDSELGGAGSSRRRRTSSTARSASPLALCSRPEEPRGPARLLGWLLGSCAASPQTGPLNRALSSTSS
Assay: Radioligand binding Scintillation Proximity Assay ([3H]PGD2, hCRTH2-CHO cell membranes)
Set-up: host or cells: CHO cells
Conditions: 1.5 nM [3H]PGD2, hCRTH2-CHO cell membranes, SPA
Method: Adherent CHO cells expressing hCRTH2 (Euroscreen, Belgium) were cultured in 225 cm^2 cell culture flasks (Corning, USA) in 30 ml of medium. After two rinses of phosphate buffered saline (PBS), cells were harvested in 10 ml of PBS containing 1 mM EDTA, centrifuged at 500×g for 5 min at 4° C. and frozen at −80° C. The pellet was re-suspended in 50 mM Tris-HCl, pH 7.4, 2 mM EDTA, 250 mM Sucrose, containing protease inhibitor cocktail tablets, (Complete EDTA-free, Roche, Germany) and incubated 30 min at 4° C. Cells were disrupted by nitrogen cavitation (Parr Instruments, USA) at 4° C. (800 p.s.i. for 30 min), and centrifuged at 500×g for 10 min at 4° C. Pellet containing nuclei and cellular debris was discarded and supernatant was centrifuged 60 min at 4° C. at 45000×g. Membrane pellet was re-suspended in storage buffer (10 mM HEPES/KOH pH 7.4, 1 mM EDTA, 250 mM sucrose, protease inhibitor cocktail tablets) using Dounce homogenization and frozen in liquid nitrogen, and stored at −80° C.
The inhibitory activity can be investigated by a radioligand binding Scintillation Proximity Assay (SPA) (Sawyer et al., Br. J. Pharmocol 2002, 137, 1163-72). The SPA radioligand binding assay was performed at room temperature in binding buffer (10 mM HEPES/KOH pH 7.4, 10 mM MnCl2, with protease inhibitor cocktail tablets), containing 1.5 nM [^3H]PGD2 (Perkin Elmer), 10-50 μg/ml of hCRTH2-CHO cell membrane protein and 2 mg/ml of Wheat-germ agglutinin Sintillation Proximity Assay beads (RPNQ0001, GE-Healthcare) in a final volume of 100 μl in 96 well plates (Corning, USA). Non-specific binding was determined in the presence of 10 μM PGD2 (Cayman, USA). Competing Compounds of Formula (I) were diluted in dimethylsulphoxide so that the total volume of dimethylsulfoxide was kept constant at 1% dimethylsulphoxide (Me2SO). Serial dilutions of 100 μM to 100 pM were prepared and 10 μl each of the compounds of Formula (I) stock solutions were added to the binding assay reagents and incubated for 90 min with agitation at room temperature. Binding activity was determined by using a 1450 Micro-beta scintillation counter (Wallac, UK).

Compound | pIC50
O=C(O)COc1ccc(Cl)cc1C#Cc1ccc(Cl)cc1 [Example 2, {4-chloro-2-[(4-chlorophenyl)ethynyl]phenoxy}acetic acid] | 7.04
O=C(O)COc1ccc(Cl)cc1C#Cc1ccccc1F [Example 5, {4-chloro-2-[(2-fluorophenyl)ethynyl]phenoxy}acetic acid] | 7.25
O=C(O)COc1ccc(Cl)cc1C#Cc1cccc(C(F)(F)F)c1 [Example 7, (4-chloro-2-{[3-(trifluoromethyl)phenyl]ethynyl}phenoxy)acetic acid] | 6.95
O=C(O)COc1ccc(Cl)cc1C#Cc1ccc(F)cc1F [Example 8, {4-chloro-2-[(2,4-difluorophenyl)ethynyl]phenoxy}acetic acid] | 6.91
O=C(O)COc1ccc(Cl)cc1C#Cc1ccc(Cl)s1 [Example 10, {4-chloro-2-[(5-chloro-2-thienyl)ethynyl]phenoxy}acetic acid] | 6.57
Cn1ccnc1C#Cc1cc(Cl)ccc1OCC(=O)O [Example 11, {4-chloro-2-[(1-methyl-1H-imidazol-2-yl)ethynyl]phenoxy}acetic acid] | 5.75
O=C(O)COc1ccc(Cl)cc1C#Cc1ccncc1 [Example 12, [4-chloro-2-(pyridin-4-ylethynyl)phenoxy]acetic acid] | 6.09
O=C(O)COc1ccc(Cl)cc1C#Cc1ccccn1 [Example 13, [4-chloro-2-(pyridin-2-ylethynyl)phenoxy]acetic acid] | 5.84
O=C(O)COc1ccc(Cl)cc1C#Cc1cccc(S(=O)(=O)CCCO)c1 [Example 19, [4-chloro-2-({3-[(3-hydroxypropyl)sulfonyl]phenyl}ethynyl)phenoxy]acetic acid] | 7.44
Cc1ncccc1C#Cc1cc(Cl)ccc1OCC(=O)O [Example 22, {4-chloro-2-[(2-methylpyridin-3-yl)ethynyl]phenoxy}acetic acid] | 6.76
Cc1nc(C)c(C#Cc2cc(Cl)ccc2OCC(=O)O)s1 [Example 24, {4-chloro-2-[(2,4-dimethyl-1,3-thiazol-5-yl)ethynyl]phenoxy}acetic acid] | 6.99
O=C(O)COc1ccc(Cl)cc1C#Cc1cc(CO)ccc1F [Example 25, (4-chloro-2-{[2-fluoro-5-(hydroxymethyl)phenyl]ethynyl}phenoxy)acetic acid] | 7.05
Cc1ccc(OCC(=O)O)c(C#Cc2ccccc2Cl)c1 [Example 27, {2-[(2-chlorophenyl)ethynyl]-4-methylphenoxy}acetic acid] | 6.46
O=C(O)COc1ccc(Cl)cc1C#Cc1cccc(CO)c1F [Example 28, (4-chloro-2-{[2-fluoro-3-(hydroxymethyl)phenyl]ethynyl}phenoxy)acetic acid] | 7.32
CCCCCCc1ccncc1C#Cc1cc(Cl)ccc1OCC(=O)O [Example 29, {4-chloro-2-[(4-hexylpyridin-3-yl)ethynyl]phenoxy}acetic acid] | 7.29
COCc1ccc(F)c(C#Cc2cc(Cl)ccc2OCC(=O)O)c1 [Example 30, (4-chloro-2-{[2-fluoro-5-(methoxymethyl)phenyl]ethynyl}phenoxy)acetic acid] | 7.07
Cc1cc[n+]([O-])cc1C#Cc1cc(Cl)ccc1OCC(=O)O [Example 31, {4-chloro-2-[(4-methyl-1-oxidopyridin-3-yl)ethynyl]phenoxy}acetic acid] | 7.72
CS(=O)(=O)c1cncc(C#Cc2cc(Cl)ccc2OCC(=O)O)c1 [Example 36, (4-chloro-2-{[5-(methylsulfonyl)pyridin-3-yl]ethynyl}phenoxy)acetic acid] | 7.12
CS(=O)(=O)Nc1cncc(C#Cc2cc(Cl)ccc2OCC(=O)O)c1 [Example 39, [4-chloro-2-({5-[(methylsulfonyl)amino]pyridin-3-yl}ethynyl)phenoxy]acetic acid] | 7.64
CN(c1cncc(C#Cc2cc(Cl)ccc2OCC(=O)O)c1)S(C)(=O)=O [Example 47, [4-chloro-2-({5-[methyl(methylsulfonyl)amino]pyridin-3-yl}ethynyl)phenoxy]acetic acid] | 6.47
CS(=O)(=O)c1ccc(N2CCCCC2)c(C#Cc2cc(Cl)ccc2OCC(=O)O)c1 [Example 57, (4-chloro-2-{[5-(methylsulfonyl)-2-piperidin-1-ylphenyl]ethynyl}phenoxy)acetic acid] | 6.55

Further lines, results first:

pIC50 | Compound
7.12 | O=C(O)COc1ccc(Cl)cc1C#Cc1ccccc1 [Example 1, [4-chloro-2-(phenylethynyl)phenoxy]acetic acid]
6.64 | COc1ccccc1C#Cc1cc(Cl)ccc1OCC(=O)O [Example 6, {4-chloro-2-[(2-methoxyphenyl)ethynyl]phenoxy}acetic acid]
7.52 | O=C(O)COc1ccc(Cl)cc1C#Cc1ccccc1C(F)(F)F [Example 9, (4-chloro-2-{[2-(trifluoromethyl)phenyl]ethynyl}phenoxy)acetic acid]
6.84 | O=C(O)COc1ccc(Cl)cc1C#Cc1cccnc1 [Example 14, [4-chloro-2-(pyridin-3-ylethynyl)phenoxy]acetic acid]
8.22 | CCNS(=O)(=O)c1ccc(C)c(C#Cc2cc(Cl)ccc2OCC(=O)O)c1 [Example 16, [4-chloro-2-({5-[(ethylamino)sulfonyl]-2-methylphenyl}ethynyl)phenoxy]acetic acid]
7.72 | CS(=O)(=O)c1cccc(C#Cc2cc(Cl)ccc2OCC(=O)O)c1 [Example 18, (4-chloro-2-{[3-(methylsulfonyl)phenyl]ethynyl}phenoxy)acetic acid]
7.34 | N#Cc1ccc(F)c(C#Cc2cc(Cl)ccc2OCC(=O)O)c1 [Example 21, {4-chloro-2-[(5-cyano-2-fluorophenyl)ethynyl]phenoxy}acetic acid]
7.52 | N#Cc1ccc(OCC(=O)O)c(C#Cc2ccccc2Cl)c1 [Example 23, {2-[(2-chlorophenyl)ethynyl]-4-cyanophenoxy}acetic acid]
7.59 | COCc1ccc(C#Cc2cc(Cl)ccc2OCC(=O)O)c(F)c1 [Example 34, (4-chloro-2-{[2-fluoro-4-(methoxymethyl)phenyl]ethynyl}phenoxy)acetic acid]
5.23 | O=C(O)COc1cc(F)ccc1C#Cc1ccccc1Cl [Example 37, {2-[(2-chlorophenyl)ethynyl]-5-fluorophenoxy}acetic acid]
7.82 | O=C(O)COc1ccc(C(F)(F)F)cc1C#Cc1ccccc1Cl [Example 41, [2-[(2-chlorophenyl)ethynyl]-4-(trifluoromethyl)phenoxy]acetic acid]
6.02 | O=C(O)COc1ccccc1C#Cc1ccccc1Cl [Example 45, {2-[(2-chlorophenyl)ethynyl]phenoxy}acetic acid]
6.49 | O=C(O)COc1ccc(Cl)cc1C#Cc1cncc(S(=O)(=O)NCCO)c1 [Example 46, {4-chloro-2-[(5-{[(2-hydroxyethyl)amino]sulfonyl}pyridin-3-yl)ethynyl]phenoxy}acetic acid]
7.96 | CCS(=O)(=O)c1ccc(C)c(C#Cc2cc(Cl)ccc2OCC(=O)O)c1 [Example 50, (4-chloro-2-{[5-(ethylsulfonyl)-2-methylphenyl]ethynyl}phenoxy)acetic acid]
8.10 | Cc1ccc(S(=O)(=O)C(C)C)cc1C#Cc1cc(Cl)ccc1OCC(=O)O [Example 51, (4-chloro-2-{[5-(isopropylsulfonyl)-2-methylphenyl]ethynyl}phenoxy)acetic acid]
7.60 | Cc1ccc(S(=O)(=O)CCO)cc1C#Cc1cc(Cl)ccc1OCC(=O)O [Example 52, [4-chloro-2-({5-[(2-hydroxyethyl)sulfonyl]-2-methylphenyl}ethynyl)phenoxy]acetic acid]
6.53 | CS(=O)(=O)c1ccc(O)c(C#Cc2cc(Cl)ccc2OCC(=O)O)c1 [Example 60, (4-chloro-2-{[2-hydroxy-5-(methylsulfonyl)phenyl]ethynyl}phenoxy)acetic acid]
8.10 | CS(=O)(=O)c1ccc(Cl)c(C#Cc2cc(C#N)ccc2OCC(=O)O)c1 [Example 61, (2-{[2-chloro-5-(methylsulfonyl)phenyl]ethynyl}-4-cyanophenoxy)acetic acid]
